Results reported in patent US8609639B2, “Stat3 inhibitor having anti-cancer activity and methods” (University of South Florida, priority 2006, dated 2013).
Residues, ends and D or L forms follow the SMILES beside them. *: point of attachment. Cbz = O=C(OCc1ccccc1)*

Legend:
[1] = tested on: Stat3-YFP in NIH3T3/v-Src/Stat3-YFP fibroblasts; assay: Fluorescence and confocal microscopy of Stat3-YFP signal; type: cell-based, mouse; design: Stat3-YFP fluorescence signal: dose or concentration left out as unconfirmed; conditions: for aggregated bodies (aggresomes) of Stat3-YFP: within 5 h of treatment, laser scanning confocal microscopy; for Stat3-YFP fluorescence signal: S3I-M2001, loss evident from 2-5 h, MG132 alone
Description: NIH3T3/vSrc cells were either stably transfected with Stat3-YFP construct (23), or growing in 96-well plates on chamber slides were transiently transfected with the Stat3-YFP plasmid (23) using Lipofectamine 2000 for 24 h according to the manufacturer's protocol (Roche), treated with or without S3I-M2001 for different times, and examined under Nikon Eclipse TE200 fluorescence microscope (Nikon). Images were captured and processed by NIKON NIS element-Basic research software.
Specimens were then washed 5 times with PBS, covered with cover slides with [sequence] mounting medium containing DAPI, and examined immediately under Leica TCS SP5 confocal microscope (Germany) at appropriate wavelengths depending on GFP or YFP. Images were captured and processed using the Leica TCS SP 5 software.

[2] = tested on: GFP in NIH3T3/v-Src/GFP fibroblasts
[3] = tested on: MDA-MB-231 tumor xenografts; assay: Human breast tumor xenografts in athymic nude mice; type: in vivo, mouse
Description: Six-week-old female athymic nude mice were purchased from Harlan and maintained in the institutional animal facilities approved by the American Association for Accreditation of Laboratory Animal Care. Athymic nude mice were injected subcutaneously in the left flank area with 5×10^6 human breast cancer MDA-MB-231 cells in […] of PBS. After 5 to 10 days, tumors of a diameter of 3 mm were established. Animals were grouped so that the mean tumor sizes in all groups were nearly identical, given S3I-[…] i.v. at 5, 10 and 20 mg/kg every 2 or every 3 days for 26 days and monitored every 2 or 3 days, and tumor sizes were measured with calipers. Tumor volume was calculated according to the formula V=0.52×a2×b, where a, smallest superficial diameter, b, largest superficial diameter.

MDA-MB-231 [4] = assay: Matrigel invasion assay; type: cell-based, human; design: dose or concentration left out as unconfirmed; conditions: matrigel-coated filters, 24 h
Description: (§1) Cell migration experiments were carried out using Bio-Coat migration chambers (Becton Dickinson, Franklin, N.J.) of 24-well companion plates with cell culture inserts containing […] pore size filters, according to the manufacturer's protocol. […] After 24-h incubation (37° C., 5% CO2), the filters were removed and the upper surface was wiped with a cotton-tipped applicator to remove non-migratory cells. Cells that had migrated through the filter pores and attached to bottom surface of the filter were fixed and stained. The membranes were mounted on glass slides and cells from 10 random microscopic fields (×400 magnification) were counted. Cell invasion experiments were performed using same Bio-Coat invasion chambers (Becton Dickenson), as already described, except that here, filters ([…]) were used coated with the basement membrane matrigel. Percent inhibition is calculated as 100−y, where y equals residual number of stained cells in the treated/total number in the control ×100.

Panc-1 [5] = assay: Matrigel invasion assay; type: cell-based, human; design: dose or concentration left out as unconfirmed; conditions: matrigel-coated filters, 24 h
Description: as §1

[6] = tested on: Bcl-xL expression in NIH3T3/v-Src and MDA-MB-435 cells; assay: Western blot analysis for Bcl-xL; type: cell-based, mouse, human
Excerpt: (§2) Whole-cell lysates prepared in boiling SDS sample-loading buffer. i.p. from lysates using monoclonal anti-Stat3 antibody (Cell Signaling Technology), and the probing of nitrocellulose membranes with primary antibodies and detection of horseradish peroxidase-conjugated secondary antibodies by enhanced chemiluminescence (Amersham Biosciences) were done, as previously described (13, 17, 19, 21). The probes used were anti-Stat3 (Santa Cruz), anti-pTyr705Stat3 (Cell Signaling Technology), anti-YFP antibodies (Santa Cruz), anti-Bcl-xL, anti-pSrc, anti-Src, anti-pJak1, anti-Jak1, anti-pEr1/2 and anti-Erk1/2, and b-actin (Cell Signaling Technology).

[7] = tested on: NIH3T3/v-Src, MDA-MB-231 and MDA-MB-435 cells; assay: TUNEL and Annexin V binding/Flow Cytometry apoptosis, cells harbouring aberrant Stat3; type: cell-based, mouse, human; design: apoptosis (Annexin V) after transfection with Stat3 SH2 domain: dose or concentration left out as unconfirmed
Description: (§3) In some cases, cells were first transfected with the plasmid for the Stat3 SH2 (ST3-SH2) domain or mock-transfected (pcDNA3 empty vector) for 24 h or untransfected prior to treatment with S3I-M2001 for an additional 24-48 h. Cells were then detached and analyzed by Annexin V binding (BD Biosciences, San Diego) according to the manufacturer's protocol and Flow Cytometry to quantify the percent apoptosis.

NIH3T3/v-Ras = assay: Soft-agar colony formation assay, v-Ras transformed fibroblasts; type: cell-based, mouse; conditions: NIH3T3/v-Ras lacking constitutively-active Stat3
Description: (§4) Colony formation assays were carried out in six-well dishes and colonies were enumerated as previously described (19). Treatment with S3I-M2001 was initiated 1 day after seeding cells in soft-agar suspension by adding […] of medium with or without compound, and repeated every three days, until large colonies were evident.

[8] = tested on: NIH3T3/v-Src and Panc-1 cells; assay: Soft-agar colony formation assay, cells with active Stat3; type: cell-based, mouse, human; conditions: treated every three days
Description: as §4

[9] = tested on: Stat3 nuclear localization in EGF-stimulated NIH3T3/hEGFR; assay: Immunofluorescence/confocal microscopy of Stat3 nuclear localization; type: cell-based, mouse; design: dose or concentration left out as unconfirmed; conditions: for 3 h prior to rhEGF stimulation for 10 min
Description: NIH3T3/hEGFR cells were grown in multi-cell plates and treated with or without S3I-M2001 for 3 h prior to stimulation by rhEGF (10 ng/ml) for 10 min or NIH3T3/vSrc cells were grown in multi-cell plates or chamber slides and cells were fixed with 4% paraformaldehyde for 15 min. Cells were washed 3 times in PBS, permeabilized with 0.2% Triton X for 5 min, and further washed 3-4 times with PBS. Specimens were then blocked in 5% goat serum for 60 min and incubated with Stat3 (Cell Signaling Technology) or Hook2 (Santa Cruz, Santa Cruz, Calif.) antibody at 1:50 dilution at 4° C. overnight. Subsequently, cells were rinsed 4-5 times in PBS, incubated with Alexa fluor 488 rabbit antibody (Molecular probe, Eugene, Oreg.) for (Stat3 detection) or NL637 goat antibody (R&D Systems, Minneapolis, Minn.) for Hook2 for 1-2 h at room temperature in the dark. Specimens were then washed 5 times with PBS, covered with cover slides with [sequence] mounting medium containing DAPI, and examined immediately under Leica TCS SP5 confocal microscope (Germany) at appropriate wavelengths depending on GFP or YFP. Images were captured and processed using the Leica TCS SP 5 software.
Stat3:Stat3 = molecular target: T1, Stat3:Stat3 (Mus musculus, UniProt P42227); assay: STAT DNA-binding assay/EMSA in nuclear extracts (hSIE probe); type: biochemical; conditions: from EMSA IC50 values
T1 construct: Nuclear extract preparations from v-Src-transformed (NIH3T3/v-Src) or EGF-stimulated NIH3T3/hEGFR fibroblasts, or tumor cell lines were subjected to EMSA; endogenous in cells; host or cells: NIH3T3/v-Src or EGF-stimulated NIH3T3/hEGFR fibroblasts (nuclear extracts)
Description: (§5) Nuclear extract preparation from cells and EMSA were carried out as previously described (9-12, 16, 18, 40). Nuclear extract preparations from v-Src-transformed (NIH3T3/v-Src) or EGF-stimulated NIH3T3/hEGFR fibroblasts, or tumor cell lines were subjected to EMSA. The 32P-labeled oligonucleotide probe used was hSIE (high affinity sis-inducible element from the c-fos gene, m67 variant, as reported by Wagner et al. (42), and that binds Stat1 and Stat3. Except where indicated, inhibitor compound was pre-incubated with the nuclear extract for 30 min at room temperature prior to incubation with radiolabeled hSIE probe. Where necessary, cells were stimulated with recombinant human EGF (rhEGF) for 5-15 min prior to preparation of nuclear extracts. Bands corresponding to DNA-binding activities were scanned and quantified for each concentration of compound and plotted as percent of control (vehicle) against concentration of compound, from which the IC50 values were derived, as previously reported (9, 10, 42).

[10] = tested on: MDA-MB-435, MDA-MB-231, Panc-1 cancer cells and NIH3T3/v-Src fibroblasts; assay: WST-1 cell viability assay, cells harbouring constitutively-active Stat3; type: cell-based, human, mouse; conditions: WST-1 and trypan blue exclusion/cell counting
Description: as §3

[11] = tested on: v-Src-induced Stat3-dependent pLucTKS3 luciferase reporter; assay: Transient transfection luciferase reporter, Stat3-dependent; type: cell-based, mouse; conditions: NIH3T3 fibroblasts co-transfected with v-Src
[12] = molecular target: T2, Stat3 ubiquitination in NIH3T3/v-Src fibroblasts (Mus musculus, UniProt P42227); assay: Immunoblotting for ubiquitin of Stat3 immunoprecipitates; type: cell-based; conditions: up to 24 h treatment
T2 construct: endogenous in cells; host or cells: NIH3T3/v-Src
Excerpt: as §2

Stat3:Stat3 dimer = molecular target: T3, Stat3:Stat3 dimer (Homo sapiens, UniProt P40763); assay: Dissociation-reassociation analysis with EMSA (pooled lysates of activated Stat1 and Stat3); type: biochemical; conditions: pooled lysates of activated Stat1 and Stat3, increasing concentration
T3 construct: made in house; host or cells: Sf-9 insect cells (baculovirus; co-infected with Jak1 and c-Src)
Excerpt: Infect of Sf-9 cells with Stat1, Stat3, Jak1, and c-Src recombinant baculoviruses and preparation of the cell lysates containing activated Stat1 or Stat3 have been previously described (9, 21).
In the previously reported dissociation-reassociation analysis (9, 10, 20), two independently-prepared cell lysate, one containing only activated Stat3:Stat3 dimer and the other containing only activated Stat1:Stat1 dimer (21), were mixed together and pre-treated with or without increasing concentration of S3I-M2001 and subjected to STAT DNA-binding assay with EMSA analysis.
The dissociation-reassociation analysis with EMSA analysis was performed, as previously done (10, 20).

NIH3T3/v-Src [13] = assay: Cell migration assay (Bio-Coat chambers); type: cell-based, mouse; design: dose or concentration left out as unconfirmed; conditions: S3I-M2001, 24 h
Description: as §1

MDA-MB-231 [14] = assay: Cell migration assay (Bio-Coat chambers); type: cell-based, human; design: dose or concentration left out as unconfirmed; conditions: S3I-M2001, 24 h
Description: as §1

Panc-1 [15] = assay: Cell migration assay (Bio-Coat chambers); type: cell-based, human; design: dose or concentration left out as unconfirmed; conditions: S3I-M2001, 24 h
Description: as §1

Lck SH2-GST = Lck SH2-GST (Homo sapiens, UniProt P06239); assay: Lck-SH2 domain ELISA assay; type: binding; design: dose or concentration left out as unconfirmed; conditions: S3I-M2001
Description: An ELISA assay for the binding of Lck-SH2 domain with its conjugate phosphopeptide, biotinyl-e-Ac-EPQpYEEIEL-OH, was carried out, as previously described (13, 22). Absorbance reading (450 nm) for the peroxidase reaction was determined with an ELISA plate reader.

NIH3T3/v-Src [16] = assay: Matrigel invasion assay; type: cell-based, mouse; design: dose or concentration left out as unconfirmed; conditions: matrigel-coated filters, 24 h
Description: as §1

[17] = tested on: pJak1, pSrc and pErk1/2 (MAPKs); assay: Western blot of whole-cell lysates for non-Stat3 signalling proteins; type: cell-based, mouse; conditions: NIH3T3/v-Src fibroblasts
Excerpt: as §2

[18] = tested on: constitutively-active Stat3; assay: Constitutive Stat3 Tyr phosphorylation and activation in cells (EMSA, Western blot, immunocytostaining); type: cell-based, mouse, human; conditions: NIH3T3/v-Src, MDA-MB-231 and MDA-MB-435 cell lines
Description: as §5, with “42). […]” for “42).”

[19] = tested on: normal NIH3T3, MCF-10A, MDA-MB-453, HUVEC, HAEC and HL-60 cells; assay: TUNEL and Annexin V apoptosis, cells without aberrant Stat3; type: cell-based, mouse, human; conditions: cells that do not contain aberrant Stat3
Description: as §3

[20] = molecular target: Stat3 activation over that of Stat1 (Mus musculus, UniProt P42227); assay: rhEGF-induced STAT activation in NIH3T3/hEGFR fibroblasts (EMSA); type: cell-based
Description: as §5

Stat3 activation over that of Stat1, sequence (P42227 whole entry): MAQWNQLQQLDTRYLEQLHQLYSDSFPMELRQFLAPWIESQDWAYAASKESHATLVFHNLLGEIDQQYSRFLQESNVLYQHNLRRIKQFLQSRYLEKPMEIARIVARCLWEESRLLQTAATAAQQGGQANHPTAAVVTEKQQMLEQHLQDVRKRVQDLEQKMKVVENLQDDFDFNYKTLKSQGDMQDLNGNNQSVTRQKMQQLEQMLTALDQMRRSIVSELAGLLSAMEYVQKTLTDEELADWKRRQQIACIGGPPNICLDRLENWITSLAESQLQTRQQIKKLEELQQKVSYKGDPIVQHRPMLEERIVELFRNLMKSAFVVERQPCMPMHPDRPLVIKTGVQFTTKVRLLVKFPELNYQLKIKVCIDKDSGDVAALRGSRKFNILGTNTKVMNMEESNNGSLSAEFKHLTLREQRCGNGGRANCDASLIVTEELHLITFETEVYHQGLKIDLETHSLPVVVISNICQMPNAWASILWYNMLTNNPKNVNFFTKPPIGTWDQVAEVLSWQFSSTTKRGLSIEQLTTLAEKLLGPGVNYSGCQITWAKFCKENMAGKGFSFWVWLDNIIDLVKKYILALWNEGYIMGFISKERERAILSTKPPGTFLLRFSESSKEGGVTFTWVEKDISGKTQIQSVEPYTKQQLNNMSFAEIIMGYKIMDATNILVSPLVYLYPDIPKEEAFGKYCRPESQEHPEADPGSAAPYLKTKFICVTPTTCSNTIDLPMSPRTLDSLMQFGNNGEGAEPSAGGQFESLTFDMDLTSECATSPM
T2 sequence (P42227 whole entry): as above
T1 sequence (P42227 2-770 limits assumed): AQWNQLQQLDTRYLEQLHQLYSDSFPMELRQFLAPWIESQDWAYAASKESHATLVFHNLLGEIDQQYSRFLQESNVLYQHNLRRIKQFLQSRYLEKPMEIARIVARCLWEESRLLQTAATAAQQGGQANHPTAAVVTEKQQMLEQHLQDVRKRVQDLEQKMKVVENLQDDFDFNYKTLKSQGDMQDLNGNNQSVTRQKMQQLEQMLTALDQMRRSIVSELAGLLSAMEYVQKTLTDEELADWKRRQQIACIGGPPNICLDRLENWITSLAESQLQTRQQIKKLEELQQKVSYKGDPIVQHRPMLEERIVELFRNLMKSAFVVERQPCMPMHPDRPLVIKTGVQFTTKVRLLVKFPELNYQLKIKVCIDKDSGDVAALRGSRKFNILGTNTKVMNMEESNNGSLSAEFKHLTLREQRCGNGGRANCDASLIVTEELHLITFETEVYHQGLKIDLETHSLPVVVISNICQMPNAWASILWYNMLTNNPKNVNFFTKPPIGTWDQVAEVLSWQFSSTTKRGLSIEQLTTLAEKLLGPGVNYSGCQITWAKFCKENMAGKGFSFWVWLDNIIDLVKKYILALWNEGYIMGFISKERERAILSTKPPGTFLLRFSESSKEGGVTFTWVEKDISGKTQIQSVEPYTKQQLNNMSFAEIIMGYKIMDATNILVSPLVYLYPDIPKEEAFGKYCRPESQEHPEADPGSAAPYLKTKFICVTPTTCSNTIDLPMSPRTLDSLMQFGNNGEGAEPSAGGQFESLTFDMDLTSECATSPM
Lck SH2-GST, sequence (P06239 127-224 limits assumed): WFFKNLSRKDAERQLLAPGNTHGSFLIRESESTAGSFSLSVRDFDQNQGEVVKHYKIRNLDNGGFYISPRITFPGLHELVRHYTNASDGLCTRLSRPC
T3 sequence (P40763 whole entry): as the sequence (P42227 whole entry) above, with D760E counted along it

`N.N.[Cl][Pt][Cl]` [Cisplatin, reference compound] was tested, and the “aggregated bodies (aggresomes) of Stat3-YFP” value [1] was “no such effect”.

`CC(C)C[C@@H](C=O)NC(=O)[C@H](CC(C)C)NC(=O)[C@H](CC(C)C)NC(=O)OCc1ccccc1` [MG132, reference compound] (Cbz-Leu-Leu-Leu-aldehyde) was tested, and the GFP signal change [2] was “no evidence of GFP signal change” and the Stat3-YFP fluorescence signal [1] was “no appreciable effect”.

In the case of `CCCCCCNC(=O)c1nc(-c2cccc3ccccc23)oc1Cc1ccc(OP(=O)(O)O)cc1` [S3I-M2001], the viability of animals ([3]; highest dose applied, 20 mg kg-1 i.v.) is reported as “remained viable”, the “growth of tumors (tumor volume)” value ([3]; i.v. 5, 10 and 20 mg kg-1 every 2 or 3 days for 26 days) is reported as “strongly inhibited growth of tumors” and the “Stat3 activity and pTyr levels in residual tumor tissue” value ([3]; tumors T1 and T2, 3 days after last 5 mg kg-1 injection, EMSA and Western blot) is reported as “abrogated Stat3 activity and pTyr levels”. The inhibition of invasion (MDA-MB-231 [4]) was 48%, the inhibition of invasion (Panc-1 [5]) was 38% and the Bcl-xL expression [6] was “diminished Bcl-xL expression”. For the same compound, the “apoptosis (Annexin V) after transfection with Stat3 SH2 domain” value ([7]; 3T3/v-Src/ST3-SH2 versus mock-transfected or untransfected, 24 h) was “diminished apoptosis”, the “apoptosis (TUNEL, Annexin V)” value ([7]; NIH3T3/v-Src, MDA-MB-231, MDA-MB-435, 48 h (TUNEL)) was “strong apoptosis” and the GFP signal change [2] was “no evidence of GFP signal change”. For the same compound, the growth in soft-agar (NIH3T3/v-Ras) was “no appreciable effects”, the Stat3-YFP fluorescence signal [1] was “time-dependent decrease” and the “aggregated bodies (aggresomes) of Stat3-YFP” value [1] was “accompanied by aggregated bodies”. The growth in soft-agar [8] was “blocked growth in soft-agar”, the “EGF-induced nuclear staining of Stat3” value [9] was “significantly attenuated” and the “preferential inhibition of Stat3 activity over Stat1” value (Stat3:Stat3) was 2 fold. For the same compound, the “selective loss of viability of cells with constitutively-active Stat3 versus cells lacking it” value [10] was “greater than 2 fold”, the “Stat3-dependent pLucTKS3 luciferase reporter activity” value [11] was “inhibited” and the “level of Stat3 ubiquitination” value [12] was “strong and time-dependent increase”. The “Stat3:Stat3 DNA-binding activity in pooled lysates” value (Stat3:Stat3 dimer) was “concentration-dependent diminution”, the inhibition of migration (NIH3T3/v-Src [13]) was 76% and the inhibition of migration (MDA-MB-231 [14]) was 37%. The inhibition of migration (Panc-1 [15]) was 21%, the “binding of Lck SH2-GST to phosphopeptide biotinyl-e-Ac-EPQpYEEIEL-OH” value (Lck SH2-GST) was “minimal effect” and the inhibition of invasion (NIH3T3/v-Src [16]) was 28%. For the same compound, the “pJak1, pSrc and pErk1/2 levels” value [17] was “not repressed”, the “constitutive Stat3 Tyr phosphorylation and activation” value [18] was “inhibited constitutive Stat3 Tyr phosphorylation and activation” and the “apoptosis (TUNEL, Annexin V)” value [19] was “minimal effect”. The “rhEGF-induced Stat3 activation versus Stat1” value [20] was “preferentially inhibited”.
